PubChem BioAssay (NCI)
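GI50 marks 50% less growth. Definition used: TGI = concentration required for complete inhibition of growth.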

Tests used:
Assay in all cases: inhibition of tumour cell growth, NCI panel, 384-well format
786-0 renal = test system: 786-0 renal
ACHN renal = test system: ACHN renal
BT-549 breast = test system: BT-549 breast
CAKI-1 renal = test system: CAKI-1 renal
CCRF-CEM leukemia = test system: CCRF-CEM leukemia
DU-145 prostate = test system: DU-145 prostate
EKVX NSCLC = test system: EKVX NSCLC
HCT-116 colon = test system: HCT-116 colon
HCT-15 colon = test system: HCT-15 colon
HL-60(TB) leukemia = test system: HL-60(TB) leukemia
HOP-62 NSCLC = test system: HOP-62 NSCLC
HOP-92 NSCLC = test system: HOP-92 NSCLC
HS 578T breast = test system: HS 578T breast
HT29 colon = test system: HT29 colon
IGROV1 ovarian = test system: IGROV1 ovarian
K-562 leukemia = test system: K-562 leukemia
KM12 colon = test system: KM12 colon
M14 melanoma = test system: M14 melanoma
MALME-3M melanoma = test system: MALME-3M melanoma
MCF7 breast = test system: MCF7 breast
MDA-MB-231 breast = test system: MDA-MB-231 breast
MDA-MB-435 melanoma = test system: MDA-MB-435 melanoma
MDA-MB-468 breast = test system: MDA-MB-468 breast
MOLT-4 leukemia = test system: MOLT-4 leukemia
NCI-H226 lung = test system: NCI-H226 lung
NCI-H522 lung = test system: NCI-H522 lung
NCI/ADR-RES ovarian = test system: NCI/ADR-RES ovarian
OVCAR-3 ovarian = test system: OVCAR-3 ovarian
OVCAR-4 ovarian = test system: OVCAR-4 ovarian
OVCAR-5 ovarian = test system: OVCAR-5 ovarian
OVCAR-8 ovarian = test system: OVCAR-8 ovarian
PC-3 prostate = test system: PC-3 prostate
RPMI-8226 leukemia = test system: RPMI-8226 leukemia
RXF 393 renal = test system: RXF 393 renal
SF-268 CNS = test system: SF-268 CNS
SF-539 CNS = test system: SF-539 CNS
SK-MEL-2 melanoma = test system: SK-MEL-2 melanoma
SK-MEL-28 melanoma = test system: SK-MEL-28 melanoma
SN12C renal = test system: SN12C renal
SNB-19 CNS = test system: SNB-19 CNS
SNB-75 CNS = test system: SNB-75 CNS
SW-620 colon = test system: SW-620 colon
U251 glioblastoma = test system: U251 glioblastoma
UACC-257 melanoma = test system: UACC-257 melanoma
UACC-62 melanoma = test system: UACC-62 melanoma
UO-31 renal = test system: UO-31 renal
A498 renal = test system: A498 renal
A549 NSCLC = test system: A549 NSCLC
COLO 205 colon = test system: COLO 205 colon
HCC-2998 colon = test system: HCC-2998 colon
LOX IMVI melanoma = test system: LOX IMVI melanoma
NCI-H23 lung = test system: NCI-H23 lung
NCI-H322M lung = test system: NCI-H322M lung
NCI-H460 NSCLC = test system: NCI-H460 NSCLC
SF-295 CNS = test system: SF-295 CNS
SK-MEL-5 melanoma = test system: SK-MEL-5 melanoma
SK-OV-3 ovarian = test system: SK-OV-3 ovarian
SR leukemia = test system: SR leukemia
T-47D breast = test system: T-47D breast
TK-10 renal = test system: TK-10 renal

## CC1=C(/C=C/C(C)=C/C=C/C(C)=C/C(=O)O)C(C)(C)CCC1
786-0 renal
  GI50: 29.7 µM
  TGI: 75.9 µM
ACHN renal
  GI50: 52.2 µM
  TGI: > 100 µM
BT-549 breast
  GI50: 20.3 µM
  TGI: 36.5 µM
CAKI-1 renal
  GI50: 38.6 µM
  TGI: > 100 µM
CCRF-CEM leukemia
  GI50: 20.1 µM
  TGI: 34.5 µM
DU-145 prostate
  GI50: 45.7 µM
  TGI: > 100 µM
EKVX NSCLC
  GI50: > 100 µM
  TGI: > 100 µM
HCT-116 colon
  GI50: 20.6 µM
  TGI: 39 µM
HCT-15 colon
  GI50: 22.7 µM
  TGI: 52.6 µM
HL-60(TB) leukemia
  GI50: 0.0259 µM
  TGI: 16.9 µM
HOP-62 NSCLC
  GI50: > 100 µM
  TGI: > 100 µM
HOP-92 NSCLC
  GI50: 38.9 µM
  TGI: > 100 µM
HS 578T breast
  GI50: 16.4 µM
  TGI: 40 µM
HT29 colon
  GI50: 21.6 µM
  TGI: 46 µM
IGROV1 ovarian
  GI50: > 100 µM
  TGI: > 100 µM
K-562 leukemia
  GI50: 21.5 µM
  TGI: 41.3 µM
KM12 colon
  GI50: 38 µM
  TGI: > 100 µM
M14 melanoma
  GI50: 19.4 µM
  TGI: 38 µM
MALME-3M melanoma
  GI50: 0.95 µM
MCF7 breast
  GI50: 18 µM
  TGI: > 100 µM
MDA-MB-231 breast
  GI50: 25.4 µM
  TGI: 72.2 µM
MDA-MB-435 melanoma
  GI50: 55.6 µM
  TGI: > 100 µM
MDA-MB-468 breast
  GI50: 25.4 µM
  TGI: 48.4 µM
MOLT-4 leukemia
  GI50: 14.6 µM
  TGI: 27.9 µM
NCI-H226 lung
  GI50: 33.2 µM
  TGI: > 100 µM
NCI-H522 lung
  GI50: 24.1 µM
  TGI: 51.5 µM
NCI/ADR-RES ovarian
  GI50: > 100 µM
  TGI: > 100 µM
OVCAR-3 ovarian
  GI50: 19.6 µM
  TGI: 34.9 µM
OVCAR-4 ovarian
  GI50: 46 µM
  TGI: > 100 µM
OVCAR-5 ovarian
  GI50: 37.2 µM
  TGI: > 100 µM
OVCAR-8 ovarian
  GI50: 24.1 µM
  TGI: 58.3 µM
PC-3 prostate
  GI50: 19.8 µM
  TGI: 39.7 µM
RPMI-8226 leukemia
  GI50: 0.293 µM
  TGI: 11.3 µM
RXF 393 renal
  GI50: 24.3 µM
  TGI: 57.5 µM
SF-268 CNS
  GI50: 22.9 µM
  TGI: 49.1 µM
SF-539 CNS
  GI50: 12 µM
  TGI: 24.9 µM
SK-MEL-2 melanoma
  GI50: 27.7 µM
  TGI: 49.7 µM
SK-MEL-28 melanoma
  GI50: 47.1 µM
  TGI: > 100 µM
SN12C renal
  GI50: 25.9 µM
  TGI: 89.1 µM
SNB-19 CNS
  GI50: 30.1 µM
  TGI: > 100 µM
SNB-75 CNS
  GI50: 31.5 µM
  TGI: 79.2 µM
SW-620 colon
  GI50: 47.3 µM
  TGI: > 100 µM
U251 glioblastoma
  GI50: > 100 µM
  TGI: > 100 µM
UACC-257 melanoma
  GI50: 33.4 µM
  TGI: > 100 µM
UACC-62 melanoma
  GI50: 19.2 µM
  TGI: 40.2 µM
UO-31 renal
  GI50: 86 µM
  TGI: > 100 µM

## Cc1ccc(NS(=O)(=O)c2cccc(C#N)c2)c2[nH]cc(C#N)c12
786-0 renal
  GI50: 11.7 µM
  TGI: > 100 µM
A498 renal
  GI50: 19.7 µM
  TGI: > 100 µM
A549 NSCLC
  GI50: 15.1 µM
  TGI: > 100 µM
ACHN renal
  GI50: 10.4 µM
  TGI: > 100 µM
BT-549 breast
  GI50: 24.9 µM
  TGI: 57.6 µM
CAKI-1 renal
  GI50: 18 µM
  TGI: > 100 µM
CCRF-CEM leukemia
  GI50: 15.1 µM
  TGI: 43.3 µM
COLO 205 colon
  GI50: 10.5 µM
  TGI: > 100 µM
DU-145 prostate
  GI50: 4.29 µM
  TGI: > 100 µM
EKVX NSCLC
  GI50: 28.7 µM
  TGI: 83.9 µM
HCC-2998 colon
  GI50: 24 µM
  TGI: > 100 µM
HCT-116 colon
  GI50: 0.246 µM
  TGI: > 100 µM
HCT-15 colon
  GI50: 10.3 µM
  TGI: > 100 µM
HL-60(TB) leukemia
  GI50: 12 µM
  TGI: 26 µM
HOP-62 NSCLC
  GI50: 12.2 µM
  TGI: > 100 µM
HOP-92 NSCLC
  GI50: 19.9 µM
  TGI: 54.6 µM
HS 578T breast
  GI50: 16.2 µM
  TGI: 65.6 µM
HT29 colon
  GI50: 47.2 µM
  TGI: > 100 µM
IGROV1 ovarian
  GI50: 0.247 µM
  TGI: > 100 µM
K-562 leukemia
  GI50: 0.525 µM
  TGI: > 100 µM
KM12 colon
  GI50: 27.1 µM
  TGI: > 100 µM
LOX IMVI melanoma
  GI50: 32.1 µM
  TGI: > 100 µM
M14 melanoma
  GI50: 26.5 µM
  TGI: > 100 µM
MALME-3M melanoma
  GI50: 61.7 µM
  TGI: > 100 µM
MCF7 breast
  GI50: 11 µM
  TGI: > 100 µM
MDA-MB-231 breast
  GI50: 14.7 µM
  TGI: > 100 µM
MDA-MB-435 melanoma
  GI50: 10.6 µM
  TGI: 44.5 µM
MDA-MB-468 breast
  GI50: 0.165 µM
  TGI: 0.629 µM
MOLT-4 leukemia
  GI50: 0.66 µM
  TGI: 13.6 µM
NCI-H226 lung
  GI50: 12.4 µM
  TGI: 70.6 µM
NCI-H23 lung
  GI50: 20 µM
  TGI: 43.9 µM
NCI-H322M lung
  GI50: 39.4 µM
  TGI: > 100 µM
NCI-H460 NSCLC
  GI50: 17.6 µM
  TGI: > 100 µM
NCI-H522 lung
  GI50: 0.292 µM
  TGI: 15.3 µM
NCI/ADR-RES ovarian
  GI50: 1.24 µM
  TGI: > 100 µM
OVCAR-3 ovarian
  GI50: 22.2 µM
  TGI: 87.6 µM
OVCAR-4 ovarian
  GI50: 18.2 µM
  TGI: > 100 µM
OVCAR-5 ovarian
  GI50: 31.1 µM
  TGI: > 100 µM
PC-3 prostate
  GI50: 1.44 µM
  TGI: > 100 µM
RPMI-8226 leukemia
  GI50: 14.5 µM
  TGI: 47.7 µM
RXF 393 renal
  GI50: 15.6 µM
  TGI: 52.7 µM
SF-268 CNS
  GI50: 37.4 µM
  TGI: > 100 µM
SF-295 CNS
  GI50: 7.23 µM
  TGI: 42.1 µM
SF-539 CNS
  GI50: 37.5 µM
  TGI: > 100 µM
SK-MEL-2 melanoma
  GI50: 33.3 µM
  TGI: 60 µM
SK-MEL-28 melanoma
  GI50: 32.9 µM
  TGI: 95.9 µM
SK-MEL-5 melanoma
  GI50: 15.7 µM
  TGI: 38 µM
SK-OV-3 ovarian
  GI50: 6.53 µM
  TGI: > 100 µM
SN12C renal
  GI50: 27.7 µM
  TGI: > 100 µM
SNB-19 CNS
  GI50: 20.2 µM
  TGI: > 100 µM
SNB-75 CNS
  GI50: 29.9 µM
  TGI: > 100 µM
SR leukemia
  GI50: 0.155 µM
  TGI: 0.799 µM
SW-620 colon
  GI50: 14.7 µM
  TGI: > 100 µM
T-47D breast
  GI50: 23.1 µM
  TGI: 79.2 µM
TK-10 renal
  GI50: 5.02 µM
  TGI: > 100 µM
U251 glioblastoma
  GI50: 16.9 µM
  TGI: > 100 µM
UACC-257 melanoma
  GI50: 48.6 µM
  TGI: > 100 µM
UACC-62 melanoma
  GI50: 0.777 µM
  TGI: 28 µM
UO-31 renal
  GI50: 17.8 µM
  TGI: 53.9 µM
